The test system of assay [1] is five different PCa cell lines. Description: MTS cell viability assay, LCL204 treatments. The following applies: 24 hours treatment. It counts as cell-based, human. Here is the method:
Cell lines. The human PCa cell lines DU145, LNCaP, DuPro, and PC-3 were purchased from ATCC (Manassas, Va., USA), and PPC-1 cells were from Dr. Yi Lu at the University of Tennessee (Memphis, Tenn.). All cells were cultured in RPMI 1640 (Mediatech Inc.; Herndon, Va., USA) supplemented with 10% heat-inactivated BGS (Hyclone; Logan, Utah, USA). Cells were maintained in 5% CO2 at 37° C. All experiments were performed in RPMI 1640 supplemented with 2% heat-inactivated BGS.
MTS cytotoxicity assays for LCL204 treatments. Cell viability was determined using the CellTiter 96 AQueous One Solution Cell Proliferation Assay (Promega; Madison, Wis., USA). 1×10^4 cells per well were seeded in 96-well plates overnight. The next day media was removed and replaced with either 100 μl media with vehicle control or media containing LCL204 at desired concentrations. Assays were carried out according to manufacturer's instruction as previously described (60). For experiments using enzyme inhibitors and LCL204, media was removed and replaced with 50 μl media containing vehicle only or indicated inhibitor. Cells were pretreated 1 hour at 37° C. before adding 50 μl media containing vehicle, inhibitor only, LCL204 only (2× concentration), or a combination. The remainder of the assay was carried out as described above.

The target of the next assay is T1, ASMase (Homo sapiens, UniProt P17405).
T1 construct: DU145 cells were lysed in 50 mM Tris (pH=7.4) using a probe sonicator; endogenous in cells; host or cells: DU145 (lysate of treated cells)
T1 sequence (P17405 47-631): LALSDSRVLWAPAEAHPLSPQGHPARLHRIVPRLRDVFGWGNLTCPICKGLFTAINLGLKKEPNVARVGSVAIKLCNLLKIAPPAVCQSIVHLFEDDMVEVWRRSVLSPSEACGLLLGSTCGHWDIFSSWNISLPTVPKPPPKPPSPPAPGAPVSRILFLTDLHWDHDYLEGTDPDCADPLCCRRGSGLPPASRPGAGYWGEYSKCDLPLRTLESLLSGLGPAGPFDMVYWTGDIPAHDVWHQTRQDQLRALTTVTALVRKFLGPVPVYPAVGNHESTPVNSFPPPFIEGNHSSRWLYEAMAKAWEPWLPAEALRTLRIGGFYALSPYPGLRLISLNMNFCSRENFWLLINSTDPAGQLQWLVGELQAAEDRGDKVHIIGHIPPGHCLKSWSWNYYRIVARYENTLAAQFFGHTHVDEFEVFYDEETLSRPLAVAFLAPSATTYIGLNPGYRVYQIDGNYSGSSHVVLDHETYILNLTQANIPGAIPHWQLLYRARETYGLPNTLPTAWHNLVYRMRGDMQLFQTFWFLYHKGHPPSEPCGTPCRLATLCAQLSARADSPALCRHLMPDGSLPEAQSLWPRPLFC
Description: Acid sphingomyelinase activity assay. It is filed as cell-based. The following applies: DU145 cells, 10 μM. The procedure: Acid Sphingomyelinase Activity Assay. DU145 cells were lysed in 50 mM Tris (pH=7.4) using a probe sonicator. Cellular debris was removed after centrifugation at 3000×g for 10 minutes. Proteins (50 μg) were adjusted to a total volume of 100 μl and the reaction was started by adding 100 μl of the reaction mixture containing 1 mM EDTA, 250 mM sodium acetate (pH 5.0), 100 μM [choline-methyl-^14C] sphingomyelin and 0.1% Triton X. After incubation at 37° C. for one hour, the reaction was stopped by adding 1.5 ml of chloroform/methanol (2:1) and then 200 μl of water. Phases were separated by centrifugation at 2000×g for 5 minutes. Quantitation of the amount of released radioactive phosphocholine was determined by subjecting 400 μl of the upper phase to scintillation counting.

The subject of assay [2] is total ceramide levels in DU145 cells. The assay is described as follows: Ceramide measurement by mass spectrometry. The following applies: 10 μM. It is filed as cell-based, human. Here is the method:
Ceramide measurement. 2.1×10^6 cells were seeded in 100 mm plates overnight. The next day, media was removed and replaced with media containing vehicle control or LCL204 (10 μM) for indicated time points. Following treatment, cells were harvested by gentle scraping and immediate centrifugation at 4° C. for 5 minutes at 400×g. Cell pellets were then resuspended in ice cold PBS and stored at −80° C. For sphingolipid analysis, cell pellets were examined using mass spectometry as previously described (61).

Assay [3] concerns cFLIPS, Survivin, cIAP-1, RIP, Caspase 8. Description: Anti-apoptotic proteins and caspase 8 after LCL204. The following applies: DU145 cells.
The next assay concerns the target T2, acid ceramidase (AC) (Homo sapiens, UniProt Q13510).
T2 construct: endogenous in cells
T2 sequence (Q13510 22-395): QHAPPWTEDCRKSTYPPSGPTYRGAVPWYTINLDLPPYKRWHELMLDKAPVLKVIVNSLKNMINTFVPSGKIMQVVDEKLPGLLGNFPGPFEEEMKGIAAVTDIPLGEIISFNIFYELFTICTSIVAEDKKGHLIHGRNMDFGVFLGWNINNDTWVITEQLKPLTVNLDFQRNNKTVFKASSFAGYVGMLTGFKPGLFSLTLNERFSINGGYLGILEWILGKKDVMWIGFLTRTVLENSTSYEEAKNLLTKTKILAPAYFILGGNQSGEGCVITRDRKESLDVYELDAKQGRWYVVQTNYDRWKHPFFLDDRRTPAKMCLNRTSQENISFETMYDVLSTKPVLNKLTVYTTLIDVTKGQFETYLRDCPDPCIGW
The assay is described as follows: Immunoblot of acid ceramidase protein. It is filed as cell-based. The following applies: DU145 cells. The procedure:
(§1) Immunoblot analysis. Cells were seeded in 60mm plates as described above and treated accordingly. Cells were lifted by gently scraping the plates, washed once with ice cold PBS and then lysed in lysis buffer (PBS, 1% Triton X-100, 10% glycerol) containing protease inhibitors pepstatin A (0.5 μg/ml), leupeptin (0.5 μg/ml), aprotinin (5 μg/ml), and PMSF (100 μg/ml) for 10 minutes on ice. Insoluble material was removed by centrifugation at 14,000 rpm for 15 minutes at 4° C. The supernatants were then supplemented with SDS at a final concentration of 2% and stored at −80° C. Protein concentrations were determined using the DC Protein Assay (BioRad Laboratories; Hercules, CA, USA) according to the manufacturer's instructions. 50 μg of protein per sample (unless otherwise indicated) were separated on NuPAGE 4-12% Bis-Tris gels (Invitrogen; Carlsbad, CA, USA) and transferred to nitrocellulose membranes (BioRad). Following transfer, membranes were blocked for 1 hour at room temperature in Tris-buffered saline (TBS) containing 0.1% Tween-20 and 5% nonfat dry milk and incubated overnight at 4° C. with primary antibody at a dilution of 1:2,000(actin), 1:1,000(cytochrome c, COX IV, Bax, Bak, p53, p38, P-p38), 1:500(P-JNK, JNK), 1:250 (AC, p73), or 1:400(LAMP-1, cathepsin B). Overnight incubations were performed in 5% milk in TBS-Tween. Following overnight incubation, membranes were washed three times for 10 minutes each in TBS-Tween and incubated for 1 hour at room temperature with secondary antibody in 5% milk TBS-Tween at a dilution 1:5,000 (goat anti-mouse IgG) or 1:50,000 (goat anti-rabbit). Membranes were then washed three times more and incubated for 5 minutes at room temperature with Super Signal HRP substrate (Pierce Biotechnology Inc.; Rockford, IL, USA).
A general note: In western blotting, separated proteins are transferred to a membrane and probed.

The next assay concerns JNK. The assay is described as follows: Immunoblot of phosphorylated JNK. It counts as cell-based, human. The following applies: DU145 and PC-3 cells. Here is the method: as §1, with “Following overnight incubation, membranes were washed three times for 10 minutes each in TBS-Tween and incubated for 1 hour at room temperature with secondary antibody in 5% milk TBS-Tween at a dilution 1:5,000 (goat anti-mouse IgG) or 1:50,000 (goat anti-rabbit). Membranes were then washed three times more and incubated for 5 minutes at room temperature with Super Signal HRP substrate (Pierce Biotechnology Inc.; Rockford, IL, USA).” left out

As for `CCCCCCCCCCCCCCN[C@H](CO)[C@H](O)c1ccc([N+](=O)[O-])cc1.Cl` [LCL204, (1R,2R) D-threo-2-N-Tetradecylamino-1-(4′-nitrophenyl)-1,3-propandiol hydrochloride], the cell death entry in assay [1] is recorded as “concentration-dependent cell death in the micromolar range”. For the same molecule, on ASMase, the “earliest decrease in ASMase activity” value came to 30 min. Besides, in assay [2], the total ceramide levels entry is recorded as “rise in total ceramide levels within one hour”. Also, in assay [3], the “Caspase 8” value is “unaffected”; the anti-apoptotic proteins result is “down-regulation of anti-apoptotic proteins cFLIPS, Survivin, cIAP-1, and RIP”. Moreover, the “earliest down-regulation of AC” value at acid ceramidase (AC) (5 μM) came out at 2 h. The AC expression levels entry at acid ceramidase (AC) is “dose and time-dependent decrease in AC expression levels”. In the assay on JNK, the “phosphorylation and activation of JNK” value is “beginning as early as three hours”.

The record behind these values is US8592419B2, “Ceramides and apoptosis-signaling ligand” (MUSC Foundation for Research Development, priority 2004, dated 2013).
